The values below come from ChEMBL document CHEMBL1132420, “Vasopeptidase inhibitors: incorporation of geminal and spirocyclic substituted azepinones in mercaptoacyl dipeptides” (J Med Chem, 1999).

The target of assay [1] is T1, Angiotensin-converting enzyme (Oryctolagus cuniculus, UniProt P12822).
T1 sequence (P12822 whole entry): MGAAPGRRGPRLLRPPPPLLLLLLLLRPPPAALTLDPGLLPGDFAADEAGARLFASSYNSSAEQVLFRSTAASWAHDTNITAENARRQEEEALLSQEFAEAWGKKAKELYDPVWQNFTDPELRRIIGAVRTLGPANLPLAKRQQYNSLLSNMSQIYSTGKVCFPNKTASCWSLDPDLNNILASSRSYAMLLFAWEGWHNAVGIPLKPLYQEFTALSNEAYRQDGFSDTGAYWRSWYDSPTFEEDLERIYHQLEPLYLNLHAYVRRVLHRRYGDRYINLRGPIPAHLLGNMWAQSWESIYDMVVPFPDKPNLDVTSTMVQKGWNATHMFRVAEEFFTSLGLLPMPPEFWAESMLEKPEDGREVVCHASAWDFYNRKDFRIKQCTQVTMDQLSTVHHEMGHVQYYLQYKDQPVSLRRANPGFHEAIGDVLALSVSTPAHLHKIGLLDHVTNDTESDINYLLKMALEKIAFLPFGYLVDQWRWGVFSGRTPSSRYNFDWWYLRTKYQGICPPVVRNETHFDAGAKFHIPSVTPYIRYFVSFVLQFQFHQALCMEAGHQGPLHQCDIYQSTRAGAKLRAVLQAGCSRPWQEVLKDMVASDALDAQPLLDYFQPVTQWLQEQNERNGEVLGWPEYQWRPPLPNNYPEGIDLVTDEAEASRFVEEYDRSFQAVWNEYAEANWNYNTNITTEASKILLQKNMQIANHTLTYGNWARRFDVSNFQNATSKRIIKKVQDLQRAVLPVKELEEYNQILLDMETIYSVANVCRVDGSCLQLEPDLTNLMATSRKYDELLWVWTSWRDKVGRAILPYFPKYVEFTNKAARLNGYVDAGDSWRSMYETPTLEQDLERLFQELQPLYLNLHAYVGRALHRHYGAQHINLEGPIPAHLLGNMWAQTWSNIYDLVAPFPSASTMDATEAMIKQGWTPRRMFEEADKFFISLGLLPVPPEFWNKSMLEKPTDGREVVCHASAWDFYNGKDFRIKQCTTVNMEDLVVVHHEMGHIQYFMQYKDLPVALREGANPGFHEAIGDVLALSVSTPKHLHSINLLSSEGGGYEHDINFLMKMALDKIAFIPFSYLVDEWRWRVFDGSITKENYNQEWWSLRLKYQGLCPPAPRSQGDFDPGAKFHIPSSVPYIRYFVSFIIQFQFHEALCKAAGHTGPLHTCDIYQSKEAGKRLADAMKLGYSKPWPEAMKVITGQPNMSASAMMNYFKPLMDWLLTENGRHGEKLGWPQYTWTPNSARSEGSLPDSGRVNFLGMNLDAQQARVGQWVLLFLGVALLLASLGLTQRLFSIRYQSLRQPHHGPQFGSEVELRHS
As to the kind of experiment: In vitro inhibitory activity against Angiotensin I converting enzyme (ACE) isolated from rabbit lung extract using hippuryl-L-histidyl-L-leucine (HHL) as the substrate.

For a further assay, the target named is T2, Neprilysin (Rattus norvegicus, UniProt P07861).
T2 sequence (P07861 whole entry): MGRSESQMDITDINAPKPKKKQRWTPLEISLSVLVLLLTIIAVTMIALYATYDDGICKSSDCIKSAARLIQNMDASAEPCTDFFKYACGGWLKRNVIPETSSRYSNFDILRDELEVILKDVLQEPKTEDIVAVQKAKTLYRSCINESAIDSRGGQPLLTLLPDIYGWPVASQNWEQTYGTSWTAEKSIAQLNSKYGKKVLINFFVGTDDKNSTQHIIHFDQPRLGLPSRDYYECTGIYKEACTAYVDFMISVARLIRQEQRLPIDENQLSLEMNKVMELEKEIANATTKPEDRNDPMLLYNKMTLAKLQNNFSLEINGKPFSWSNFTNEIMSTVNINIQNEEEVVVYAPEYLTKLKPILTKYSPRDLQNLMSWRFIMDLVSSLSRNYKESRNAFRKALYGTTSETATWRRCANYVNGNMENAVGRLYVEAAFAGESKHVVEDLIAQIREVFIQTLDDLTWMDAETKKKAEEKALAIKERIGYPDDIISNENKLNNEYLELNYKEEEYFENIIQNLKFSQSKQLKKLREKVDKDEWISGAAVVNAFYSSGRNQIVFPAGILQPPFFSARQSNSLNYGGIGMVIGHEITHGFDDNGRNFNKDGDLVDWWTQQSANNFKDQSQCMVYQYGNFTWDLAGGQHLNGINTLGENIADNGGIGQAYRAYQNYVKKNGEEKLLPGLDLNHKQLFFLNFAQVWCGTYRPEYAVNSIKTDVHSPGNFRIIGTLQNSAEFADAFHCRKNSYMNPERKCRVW
Nature of the assay: In vitro inhibitory activity against purified rat kidney neutral endopeptidase (NEP) using a fluorometric assay with dansyl-Gly-Phe-Arg as the substrate.

For the next assay, the species on record is Rattus norvegicus. As to the kind of experiment: Compound is evaluated for the dose required for 50% inhibition of AI pressor response in normotensive rats. In kind it is functional.

Each structure is given as a SMILES string.

As to `O=C(O)CN1C(=O)[C@@H](NC(=O)[C@@H](S)Cc2ccccc2)CCCC12CC2`, the IC50 came out at 0.0096 µM in assay [1] and 0.377 µM against Neprilysin.

For the compound `O=C(O)CN1C(=O)[C@@H](NC(=O)[C@@H](S)Cc2ccccc2)CCCC12CCCC2`, the values for the IC50 (in assay [1]; against Neprilysin) were 0.006 µM and 0.426 µM, respectively.

In assay [1], `C[C@H]1CCC[C@H](NC(=O)[C@@H](S)Cc2ccccc2)C(=O)N1CC(=O)O` displayed an IC50 of 0.0082 µM.

For `CC1(C)CCC[C@H](NC(=O)[C@@H](S)Cc2ccccc2)C(=O)N1CC(=O)O` [GEMOPATRILAT], the values for the IC50 (in assay [1]; at Neprilysin) were 0.012 µM and 0.063 µM, respectively. In the assay filed under Rattus norvegicus, this compound returned an ED50 of 0.1 µmol/kg.

Turning to `O=C(O)CN1C(=O)[C@@H](NC(=O)[C@@H](S)Cc2ccccc2)CCCC12CCC2`, the IC50 in assay [1] amounted to 0.029 µM; against Neprilysin, 0.641 µM.

As a reminder, the IC50 is the midpoint of a concentration-inhibition curve. Read a high IC50 as a need for much substance. By ED50 is commonly meant the dose at which the effect has come halfway, by size or by number of responders. A high value points to weaker potency.
